Assay: molar heat capacity at constant pressure
Settings: 101.33 kPa, Crystal, Vacuum adiabatic calorimetry

CC(C)(C)c1ccc(-c2ccccc2)cc1 [4-(1,1-dimethylethyl)-1,1'-biphenyl]
Settings	molar heat capacity at constant pressure [J/K/mol]
8.3 K	2.522
8.57 K	2.757
9.11 K	3.228
9.63 K	3.765
9.89 K	4.01
11.01 K	5.257
11.39 K	5.703
11.77 K	6.312
12.15 K	6.72
12.53 K	7.182
12.92 K	7.664
13.28 K	8.377
13.65 K	8.833
14.02 K	9.436
14.39 K	9.935
14.75 K	10.39
15.11 K	10.96
15.48 K	11.37
15.83 K	12.26
16.19 K	12.78
16.55 K	13.21
16.91 K	13.77
17.27 K	14.49
17.62 K	15.23
17.98 K	15.86
18.33 K	16.18
18.68 K	16.71
19.03 K	16.98
19.38 K	17.88
19.73 K	18.48
20.08 K	19.01
20.76 K	20.23
21.53 K	21.57
22.31 K	22.77
23.08 K	23.92
23.85 K	25.18
24.62 K	26.43
25.38 K	27.38
26.14 K	28.32
26.9 K	30.11
27.66 K	31.35
28.42 K	32.53
29.17 K	33.54
29.93 K	34.42
30.68 K	35.96
31.43 K	37.32
32.19 K	38.43
32.96 K	38.73
33.71 K	40.37
34.46 K	41.38
35.21 K	42.08
35.96 K	43.44
36.71 K	44.59
37.46 K	45.86
38.21 K	46.57
38.96 K	47.65
39.71 K	48.45
40.46 K	49.16
41.21 K	50.62
41.95 K	51.64
42.7 K	52.5
43.45 K	53.06
44.2 K	53.77
44.95 K	55.03
45.69 K	55.67
46.44 K	57.1
47.19 K	57.29
47.93 K	58.61
48.68 K	59.76
49.43 K	60.29
50.18 K	60.84
50.92 K	61.9
51.67 K	62.56
52.42 K	63.33
53.16 K	64.3
53.91 K	65.39
54.65 K	65.94
55.4 K	66.72
56.14 K	67.31
56.89 K	68.21
57.64 K	68.36
58.38 K	69.38
59.12 K	69.98
59.86 K	70.84
60.61 K	71.8
61.35 K	72.22
62.09 K	73.3
62.83 K	73.97
63.57 K	75.16
64.31 K	75.92
65.06 K	76.6
65.8 K	77.49
66.54 K	77.97
67.27 K	79.07
68.02 K	79.18

— the NIST ThermoML archive (doi:10.1016/j.jct.2010.05.002)
